Data: patent US9475824B2, “Fused pyrimidines as inhibitors of p97 complex” (Cleave Biosciences, Inc., priority 2012, dated 2016)

Legend:
[1] = molecular target: p97 (Homo sapiens, UniProt P55072); test: P97 ATPase biochemical assay (ADP Glo); conditions: 20 nM p97, 20 μM ATP, 37° C. 15 minutes
Protocol: The ATPase assay is performed according the following protocol: Purified enzyme (20 nM p97), substrate (20 μM ATP) and a dose titration of compounds are mixed in buffer (50 mM TRIS pH 7.5, 20 mM MgCl2, 0.02% TX-100, 1 mM DTT, 0.2% (v/v) glycerol) and incubated at 37° C. for 15 minutes. The reaction is terminated and the level of product generated is measured using the ADP Glo Assay Kit (Promega, Madison Wis.). Plotting product generated versus compound concentration and using a four-parameter fit model generates an IC50 value for each compounds.
The p97 assay is an initial screening assay used to determine inhibitory activity of the fused pyrimidine compounds of the invention against the p97 complex. As discussed above, inhibition of activity of the p97 proteosome complex can enable apoptosis and cause elimination of neoplastic cells (cancer cells). The method follows that of Christianson in Nat.
Assay Buffer is a mixture of 50 mM TRIS pH 7.5, 20 mM MgCl2, 0.02% TX-100, 1 mM DTT and 0.2% (v/v) Glycerol. […] The identification kit is an ADP glo kit (Promega): stop buffer, detection reagent.
0.5 μL compound serial diluted in DMSO (Final Conc. 10%)
2 μL ATP (Final Conc.=20 uM, diluted in assay buffer)
2.5 μL p97 (Final Conc.=20 nM, diluted in assay buffer)
Incubate at 37 degC for 15 min.
Add 5 μL of stop buffer, incubate at RT for 40 min.
Add 10 μL of detection reagent, incubate at RT for 30 min.
Read luminescence on Envision plate reader.
Plot normalized luminescence data against log-transformed concentration values and fit to a sigmoidal curve to determine IC50 values (done in Collaborative Drug Discovery software).

[2] = system: K48-Ub, A549 cells; test: A549 K48 cell intensity (immunofluorescence, high content imaging); type: cell-based; conditions: Homo sapiens, 6 hr compound incubation
Protocol: Image-analysis is used to generate quantitative data from these assays that can be fit to a four-parameter sigmoid curve to derive IC50 values. Substrates of the ubiquitin-proteasome system, such as p53, are monitored after tumor cell lines are incubated with compounds for several hours. Accumulation of these proteins indicates an inhibition of proteasome-mediated degradation. Accumulation of lysine-48 chain linkage of poly-ubiquitin is also monitored by immunofluorescence as an indicator of ubiquitin-proteasome system inhibition. Both LC3 and SQSTM1 are mediators of autophagy. The localization and amounts of these proteins are monitored by immunofluorescence and report on the activity and inhibition of autophagy in response to p97 inhibition.
Day 1, Cell Plating to Establish Colonies of Cancer Cells • Cell Plating: • Seed cells ˜16 hrs prior to compound treatment • Plate 25 μL of A549 cells in every well of 384-well plate using multidrop. • Two (2) black plates for IF at 2500 cells/well • Let plate sit at room temp for 10-15 minutes prior to putting in incubator to allow cells to stick in middle of plate. • One (1) white plate for viability at 500 cells/well.

p97, sequence (P55072 whole entry): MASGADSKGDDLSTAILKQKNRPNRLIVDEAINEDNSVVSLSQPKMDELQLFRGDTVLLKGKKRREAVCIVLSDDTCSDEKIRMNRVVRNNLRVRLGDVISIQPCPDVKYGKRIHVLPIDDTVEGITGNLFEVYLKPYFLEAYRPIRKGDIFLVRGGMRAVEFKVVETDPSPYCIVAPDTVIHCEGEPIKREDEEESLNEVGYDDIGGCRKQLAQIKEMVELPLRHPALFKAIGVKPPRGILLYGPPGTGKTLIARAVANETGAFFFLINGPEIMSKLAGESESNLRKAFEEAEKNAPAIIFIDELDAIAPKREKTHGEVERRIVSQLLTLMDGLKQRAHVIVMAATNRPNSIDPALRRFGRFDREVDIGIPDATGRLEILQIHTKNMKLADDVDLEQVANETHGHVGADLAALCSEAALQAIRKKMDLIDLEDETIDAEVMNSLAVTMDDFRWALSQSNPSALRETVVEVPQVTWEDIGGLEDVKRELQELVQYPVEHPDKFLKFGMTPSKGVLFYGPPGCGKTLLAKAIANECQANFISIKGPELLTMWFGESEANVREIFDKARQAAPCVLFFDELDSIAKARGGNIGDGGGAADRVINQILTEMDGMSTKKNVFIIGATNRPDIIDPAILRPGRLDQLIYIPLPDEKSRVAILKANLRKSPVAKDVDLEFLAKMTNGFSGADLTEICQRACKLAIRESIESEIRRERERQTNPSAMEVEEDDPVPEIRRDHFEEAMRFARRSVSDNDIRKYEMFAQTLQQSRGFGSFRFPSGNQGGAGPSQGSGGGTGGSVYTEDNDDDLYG

IC50 [1] [nM]	IC50 [2] [µM]	SMILES
< 100	< 10	COc1nc2ccccc2n1-c1nc2c(c(NCc3ccccc3)n1)CCCC2 [compound 9, N-benzyl-2-(2-methoxy-1H-1,3-benzodiazol-1-yl)-5,6,7,8-tetrahydroquinazolin-4-amine]
< 30	< 10	COc1nc2c(C(N)=O)cccc2n1-c1nc2c(c(NCc3ccccc3)n1)COCC2 [compound 94, 1-[4-(benzylamino)-5H,7H,8H-pyrano[4,3-d]pyrimidin-2-yl]-2-methoxy-1H-1,3-benzodiazole-4-carboxamide]
< 100	< 10	Cc1cc2c(C(N)=O)cccc2n1-c1nc2c(c(NCc3ccc(F)cc3)n1)COCC2 [compound 122, 1-(4-{[(4-fluorophenyl)methyl]amino}-5H,7H,8H-pyrano[4,3-d]pyrimidin-2-yl)-2-methyl-1H-indole-4-carboxamide]
< 100	< 10	CC(C)c1cc2c(C(N)=O)cccc2n1-c1nc2c(c(NCc3ccccc3)n1)CCCC2 [compound 128, 1-[4-(benzylamino)-5,6,7,8-tetrahydroquinazolin-2-yl]-2-(propan-2-yl)-1H-indole-4-carboxamide]
< 100	< 10	CCc1cc2c(C(N)=O)cccc2n1-c1nc2c(c(NCc3ccccc3)n1)CCCC2 [compound 112, 1-[4-(benzylamino)-5,6,7,8-tetrahydroquinazolin-2-yl]-2-ethyl-1H-indole-4-carboxamide]
< 30	< 10	Cc1cc2c(C(=O)O)cccc2n1-c1nc2c(c(NCc3ccccc3)n1)CCCC2 [compound 108, 1-[4-(benzylamino)-5,6,7,8-tetrahydroquinazolin-2-yl]-2-methyl-1H-indole-4-carboxylic acid]
< 30	< 10	COCCOc1cc2c(C#N)cccc2n1-c1nc2c(c(NCc3ccccc3)n1)CCCC2 [compound 137, 1-[4-(benzylamino)-5,6,7,8-tetrahydroquinazolin-2-yl]-2-(2-methoxyethoxy)-1H-indole-4-carbonitrile]
< 300	< 10	Cc1cc2ccccc2n1-c1nc2c(c(NCc3ccccc3)n1)CCCC2 [compound 21, N-benzyl-2-(2-methyl-1H-indol-1-yl)-5,6,7,8-tetrahydroquinazolin-4-amine]
–	< 10	Cc1cc2c(CN)cccc2n1-c1nc2c(c(NCc3ccccc3)n1)COCC2 [compound 125, 2-[4-(aminomethyl)-2-methyl-1H-indol-1-yl]-N-benzyl-5H,7H,8H-pyrano[4,3-d]pyrimidin-4-amine]
< 300	< 10	CCc1cc2c(C(N)=O)cccc2n1-c1nc2c(c(NCc3ccccc3)n1)COCC2 [compound 113, 1-[4-(benzylamino)-5H,7H,8H-pyrano[4,3-d]pyrimidin-2-yl]-2-ethyl-1H-indole-4-carboxamide]
< 30	< 10	COc1cc2c(C(N)=O)cccc2n1-c1nc2c(c(NCc3ccccc3)n1)CCCC2 [compound 91, 1-[4-(benzylamino)-5,6,7,8-tetrahydroquinazolin-2-yl]-2-methoxy-1H-indole-4-carboxamide]
< 300	< 10	Cc1cc2c(S(C)(=O)=O)cccc2n1-c1nc2c(c(NCc3ccccc3)n1)COCC2 [compound 118, N-benzyl-2-(4-methanesulfonyl-2-methyl-1H-indol-1-yl)-5H,7H,8H-pyrano[4,3-d]pyrimidin-4-amine]
< 30	< 10	COc1nc2c(C(N)=O)cccc2n1-c1nc2c(c(NCc3ccccc3)n1)CCCC2 [compound 114, 1-[4-(benzylamino)-5,6,7,8-tetrahydroquinazolin-2-yl]-2-methoxy-1H-1,3-benzodiazole-4-carboxamide]
< 100	< 10	Cc1cc2c(S(C)(=O)=O)cccc2n1-c1nc2c(c(NCc3ccccc3)n1)CCCC2 [compound 111, N-benzyl-2-(4-methanesulfonyl-2-methyl-1H-indol-1-yl)-5,6,7,8-tetrahydroquinazolin-4-amine]
< 30	< 10	Cc1cc2c(C(N)=O)cccc2n1-c1nc2c(c(NCc3cccc(F)c3)n1)COCC2 [compound 136, 1-(4-{[(3-fluorophenyl)methyl]amino}-5H,7H,8H-pyrano[4,3-d]pyrimidin-2-yl)-2-methyl-1H-indole-4-carboxamide]
< 100	< 10	Cc1cc2c(S(N)(=O)=O)cccc2n1-c1nc2c(c(NCc3ccccc3)n1)CCCC2 [compound 110, 1-[4-(benzylamino)-5,6,7,8-tetrahydroquinazolin-2-yl]-2-methyl-1H-indole-4-sulfonamide]
< 30	< 10	Cc1cc2c(C(=O)O)cccc2n1-c1nc2c(c(NCc3ccccc3)n1)COCC2 [compound 107, 1-[4-(benzylamino)-5H,7H,8H-pyrano[4,3-d]pyrimidin-2-yl]-2-methyl-1H-indole-4-carboxylic acid]
< 100	< 10	NC(=O)c1cccc2c1cc(CO)n2-c1nc2c(c(NCc3ccccc3)n1)COCC2 [compound 96, 1-[4-(benzylamino)-5H,7H,8H-pyrano[4,3-d]pyrimidin-2-yl]-2-(hydroxymethyl)-1H-indole-4-carboxamide]
< 100	< 10	Cc1cc2c(C(N)=O)cccc2n1-c1nc2c(c(NCc3ccccc3F)n1)COCC2 [compound 123, 1-(4-{[(2-fluorophenyl)methyl]amino}-5H,7H,8H-pyrano[4,3-d]pyrimidin-2-yl)-2-methyl-1H-indole-4-carboxamide]
< 30	< 10	Cc1cc2c(C(=O)NCCN(C)C)cccc2n1-c1nc2c(c(NCc3ccccc3)n1)COCC2 [compound 84]
< 300	< 10	COc1nc2c(C#N)cccc2n1-c1nc2c(c(NCc3ccccc3)n1)COCC2 [compound 106, 1-[4-(benzylamino)-5H,7H,8H-pyrano[4,3-d]pyrimidin-2-yl]-2-methoxy-1H-1,3-benzodiazole-4-carbonitrile]
< 100	< 10	Cc1cc2c(CN)cccc2n1-c1nc2c(c(NCc3ccccc3)n1)CCCC2 [compound 124, 2-[4-(aminomethyl)-2-methyl-1H-indol-1-yl]-N-benzyl-5,6,7,8-tetrahydroquinazolin-4-amine]
< 30	< 10	NC(=O)c1cccc2c1cc(C1CC1)n2-c1nc2c(c(NCc3ccccc3)n1)CCCC2 [compound 130, 1-[4-(benzylamino)-5,6,7,8-tetrahydroquinazolin-2-yl]-2-cyclopropyl-1H-indole-4-carboxamide]
< 30	–	Cc1cc2c(-c3nnn[nH]3)cccc2n1-c1nc2c(c(NCc3ccccc3)n1)CCCC2 [compound 121, N-benzyl-2-[2-methyl-4-(1H-1,2,3,4-tetrazol-5-yl)-1H-indol-1-yl]-5,6,7,8-tetrahydroquinazolin-4-amine]
< 1000	–	Cc1nc2c(C(N)=O)cccc2n1-c1nc2c(c(NCc3ccccc3)n1)CNCC2 [compound 83, 1-[4-(benzylamino)-5H,6H,7H,8H-pyrido[4,3-d]pyrimidin-2-yl]-2-methyl-1H-1,3-benzodiazole-4-carboxamide]
< 1000	–	Cc1cc2c(C(=N)N)cccc2n1-c1nc2c(c(NCc3ccccc3)n1)COCC2 [compound 119]
< 1000	–	CCN1CCc2nc(-n3c(C)cc4ccccc43)nc(NCc3ccccc3)c2C1 [compound 63, N-benzyl-6-ethyl-2-(2-methyl-1H-indol-1-yl)-5H,6H,7H,8H-pyrido[4,3-d]pyrimidin-4-amine]
< 100	–	CC(=O)N1CCc2c(nc(-n3c(C)cc4ccccc43)nc2NCc2ccccc2)C1 [compound 20, 1-[4-(benzylamino)-2-(2-methyl-1H-indol-1-yl)-5H,6H,7H,8H-pyrido[3,4-d]pyrimidin-7-yl]ethan-1-one]
< 1000	–	COc1cccc2c(NCc3ccccc3)nc(-c3c(C)oc4ccccc34)nc12 [compound 16, N-benzyl-8-methoxy-2-(2-methyl-1-benzofuran-3-yl)quinazolin-4-amine]
< 1000	–	COc1cc2c(C(N)=O)cccc2n1-c1nc2c(c(NCc3ccccc3)n1)CNCC2 [compound 92, 1-[4-(benzylamino)-5H,6H,7H,8H-pyrido[4,3-d]pyrimidin-2-yl]-2-methoxy-1H-indole-4-carboxamide]
